System: TPA-induced mouse ear oedema
Experiment: TPA-induced mouse ear oedema model
Type: in vivo, Male Balb/C mice
Method: Anti-inflammatory activity was measured in the mouse ear oedema model using 12-O-tetradeconoylphorbol-13-acetate (TPA) (Sigma) or croton oil as the inducer of inflammation (Sanchez, T and Moreno, J 1999, Role of leukocyte influx in tissue prostaglandin H synthase-2 overexpression induced by phorbol ester and arachidonic acid in skin, Biochemical Pharmacology, 58, 877-879.). Male Balb/C mice 7-9 weeks old and weighing 20-25 g were used. Mice were housed in cages at constant room temperature (20±2° C.) with access to food (standard rat/mouse pellet) and water ad libitum. A 12 hr day/night cycle was maintained in the animal holding facility (Reid building animal house, University of South Australia) and all experiments were carried out during the day phase.
Baseline measurements of ear thickness were measured using a digital micrometer (±0.001 mm, Mitutoyo, Japan) prior to the experiment. TPA (2.5 μg/ear), which was dissolved in acetone, was then applied in a volume of 20 μL to the inner surface of the right ear and 20 μL of acetone to the left ear as control. After thirty minutes the test samples, which were dissolved in 80% ethanol, were applied to the inner surface of the right ear and 80% ethanol on the left ear to the respective treatment groups. Betamethasone 17,21-dipropionate (Sigma) (0.9 μmol/ear) was used as a positive control. Multi-dose experiments were conducted over the range 0.005-1.83 μmol/ear. At 2 h, 4 h, 6 h, 8 h, 24 h and 48 h after the application, the ear thicknesses were measured using a digital micrometer. A non-treated control group to which only croton oil or TPA were applied was used as a measure of maximum inflammation achieved with percent inhibition of inflammation of test sample being calculated relative to this group. Following completion of the experiment, mice were euthanized by inhalation of isoflurane followed by cervical dislocation.

## 15,16-epoxy-8(α)-(benzoyloxy)methyl-cleroda-3,13(16), 14-trien-18-oic acid [Compound E]
TPA-induced mouse ear oedema model
  anti-inflammatory activity: significant anti-inflammatory activity
Dose of 0.91 μmol
  maximum inhibition: 76.4±7.3%
Doses lower than 1.83 μmol/ear
  effect at lower concentrations: no observable effect
Highest dose tested 1.83 μmol/ear, p<0.05
  activity when compared to TPA only control: some significant level of activity

— patent US9403786B2, “Anti-inflammatory compounds” (University of South Australia, priority 2009, dated 2016)
